Assay results reported in ChEMBL document CHEMBL5291721, “A preclinical secondary pharmacology resource illuminates target-adverse drug reaction associations of marketed drugs” (Nat Commun, 2023).

Tests used:
Androgen receptor = target: T1, Androgen receptor (Homo sapiens, UniProt P10275)
T1 sequence (P10275 whole entry): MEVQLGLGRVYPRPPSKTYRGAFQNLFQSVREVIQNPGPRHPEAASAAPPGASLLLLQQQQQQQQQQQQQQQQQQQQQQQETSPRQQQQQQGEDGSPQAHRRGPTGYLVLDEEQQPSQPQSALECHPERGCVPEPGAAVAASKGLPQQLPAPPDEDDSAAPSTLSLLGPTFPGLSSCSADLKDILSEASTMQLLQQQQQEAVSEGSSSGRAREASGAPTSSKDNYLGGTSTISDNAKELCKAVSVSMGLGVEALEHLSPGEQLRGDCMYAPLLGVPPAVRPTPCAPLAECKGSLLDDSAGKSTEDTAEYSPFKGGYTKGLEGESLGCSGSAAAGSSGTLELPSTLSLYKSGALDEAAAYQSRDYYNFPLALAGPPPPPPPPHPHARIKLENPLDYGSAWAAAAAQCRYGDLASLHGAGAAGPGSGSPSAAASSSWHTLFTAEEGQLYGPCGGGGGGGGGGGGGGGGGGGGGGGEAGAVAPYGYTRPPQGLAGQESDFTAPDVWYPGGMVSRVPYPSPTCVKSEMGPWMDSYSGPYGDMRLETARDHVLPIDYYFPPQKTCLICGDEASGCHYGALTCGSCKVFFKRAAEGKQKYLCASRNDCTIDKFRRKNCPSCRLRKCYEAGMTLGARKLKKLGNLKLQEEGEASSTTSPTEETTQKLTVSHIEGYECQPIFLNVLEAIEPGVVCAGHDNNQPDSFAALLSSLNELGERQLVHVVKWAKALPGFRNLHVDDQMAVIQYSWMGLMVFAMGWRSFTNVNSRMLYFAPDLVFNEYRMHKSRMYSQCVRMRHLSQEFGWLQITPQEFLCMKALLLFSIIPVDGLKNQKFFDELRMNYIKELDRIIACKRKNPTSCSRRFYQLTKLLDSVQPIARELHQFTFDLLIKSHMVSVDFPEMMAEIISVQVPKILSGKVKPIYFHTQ

[1] = target: T2, Muscarinic acetylcholine receptor M1 (Homo sapiens, UniProt P11229); assay type: functional, cell-based
T2 sequence (P11229 whole entry): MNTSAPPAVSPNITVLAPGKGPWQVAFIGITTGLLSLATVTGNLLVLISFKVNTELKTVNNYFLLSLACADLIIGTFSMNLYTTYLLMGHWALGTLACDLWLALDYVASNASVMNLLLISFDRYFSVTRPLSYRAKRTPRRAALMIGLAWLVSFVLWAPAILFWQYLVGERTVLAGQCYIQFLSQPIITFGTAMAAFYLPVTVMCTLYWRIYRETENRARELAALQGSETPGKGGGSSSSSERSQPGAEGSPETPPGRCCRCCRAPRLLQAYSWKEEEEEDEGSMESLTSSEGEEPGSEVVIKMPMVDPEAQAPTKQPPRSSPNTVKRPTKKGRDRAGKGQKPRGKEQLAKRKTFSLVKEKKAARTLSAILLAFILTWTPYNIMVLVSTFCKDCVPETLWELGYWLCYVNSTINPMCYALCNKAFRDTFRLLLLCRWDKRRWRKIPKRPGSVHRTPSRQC

[2] = target: T3, 5-hydroxytryptamine receptor 2C (Homo sapiens, UniProt P28335)
T3 sequence (P28335 whole entry): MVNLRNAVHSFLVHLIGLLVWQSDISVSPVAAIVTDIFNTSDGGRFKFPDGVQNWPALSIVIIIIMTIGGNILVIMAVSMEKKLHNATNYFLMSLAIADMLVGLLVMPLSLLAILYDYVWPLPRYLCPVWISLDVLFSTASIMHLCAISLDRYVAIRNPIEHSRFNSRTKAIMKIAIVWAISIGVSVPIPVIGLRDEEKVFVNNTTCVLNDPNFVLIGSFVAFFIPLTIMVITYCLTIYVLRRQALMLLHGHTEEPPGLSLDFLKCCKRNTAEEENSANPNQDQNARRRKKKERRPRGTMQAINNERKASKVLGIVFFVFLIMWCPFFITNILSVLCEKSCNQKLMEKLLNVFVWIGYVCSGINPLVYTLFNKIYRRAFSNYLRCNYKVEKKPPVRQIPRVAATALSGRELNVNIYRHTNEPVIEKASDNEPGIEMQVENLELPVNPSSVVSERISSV

[3] = target: Delta-type opioid receptor (Homo sapiens, UniProt P41143)
[4] = target: Gamma-aminobutyric acid receptor subunit alpha-1 (Rattus norvegicus, UniProt P62813); assay type: functional
Further: assay procedure not described here.

Gamma-aminobutyric acid receptor subunit alpha-1, sequence (P62813 whole entry): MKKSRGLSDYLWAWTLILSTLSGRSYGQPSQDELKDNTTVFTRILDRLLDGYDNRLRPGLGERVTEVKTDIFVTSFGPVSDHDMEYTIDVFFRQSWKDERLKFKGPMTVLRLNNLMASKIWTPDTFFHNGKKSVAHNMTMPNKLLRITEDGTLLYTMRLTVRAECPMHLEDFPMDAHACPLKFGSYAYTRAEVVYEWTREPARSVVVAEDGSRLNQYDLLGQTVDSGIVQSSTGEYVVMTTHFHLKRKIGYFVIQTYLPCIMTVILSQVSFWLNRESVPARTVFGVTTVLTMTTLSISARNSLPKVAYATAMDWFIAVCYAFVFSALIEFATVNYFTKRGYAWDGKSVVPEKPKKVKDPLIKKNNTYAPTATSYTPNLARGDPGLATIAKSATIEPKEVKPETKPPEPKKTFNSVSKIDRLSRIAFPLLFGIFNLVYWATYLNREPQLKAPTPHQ
Delta-type opioid receptor, sequence (P41143 whole entry): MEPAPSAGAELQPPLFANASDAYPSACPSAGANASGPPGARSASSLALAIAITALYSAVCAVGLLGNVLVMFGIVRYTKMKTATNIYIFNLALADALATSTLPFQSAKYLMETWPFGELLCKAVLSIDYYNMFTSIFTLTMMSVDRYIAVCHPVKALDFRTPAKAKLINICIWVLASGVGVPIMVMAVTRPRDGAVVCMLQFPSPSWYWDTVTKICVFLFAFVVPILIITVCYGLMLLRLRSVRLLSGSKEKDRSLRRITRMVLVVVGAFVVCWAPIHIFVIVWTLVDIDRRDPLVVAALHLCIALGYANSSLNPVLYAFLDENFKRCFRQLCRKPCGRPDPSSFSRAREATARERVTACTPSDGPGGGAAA

Row | SMILES | AC50 (Androgen receptor) | AC50 [1] | AC50 [2] | AC50 [3] | AC50 [4]
1 | COCCOc1cnc(NS(=O)(=O)c2ccccc2)nc1 [GLYMIDINE] | > 30 µM | > 30 µM | – | – | –
2 | CO/N=C(\C(=O)N[C@@H]1C(=O)N2C(C(=O)[O-])=C(C[n+]3cccc4c3CCC4)CS[C@H]12)c1csc(N)n1 [CEFPIROME] | – | > 30 µM | > 30 µM | > 30 µM | > 30 µM
3 | c1ccc2c(CC3=NCCN3)cccc2c1 [NAPHAZOLINE] | > 30 µM | > 30 µM | – | – | –
4 | Cc1cc(CCN2CCN(c3cccc(Cl)c3)CC2)n[nH]1 [MEPIPRAZOLE] | > 30 µM | > 30 µM | – | – | –
5 | CCCC(=O)O[C@H]1[C@H](C)O[C@@H](O[C@H]2[C@H](N(C)C)[C@@H](O)[C@H](O[C@H]3[C@@H](CC=O)C[C@@H](C)[C@@H](O)/C=C/C=C/C[C@@H](C)OC(=O)C[C@@H](O)[C@@H]3OC)O[C@@H]2C)C[C@@]1(C)OC(=O)CC [ROKITAMYCIN] | > 30 µM | > 30 µM | – | – | –
6 | CCOC(=O)[C@H](CCc1ccccc1)N[C@H]1CS[C@H](c2cccs2)CN(CC(=O)O)C1=O [TEMOCAPRIL] | > 30 µM | > 30 µM | – | – | –
7 | Oc1c(I)cc(Cl)c2cccnc12 [CLIOQUINOL] | > 30 µM | – | > 10 µM | > 30 µM | > 30 µM
8 | NC(=O)NCCC[C@H](N)C(=O)O [L-CITRULLINE] | > 30 µM | > 30 µM | – | – | –
9 | CC(c1ccc(Cl)c(Cl)c1)N1N=C(N)CC1=O (stereo unspecified) [MUZOLIMINE] | > 30 µM | > 30 µM | – | – | –
10 | Nc1ccncc1 [DALFAMPRIDINE] | > 30 µM | 27.9 µM | – | – | –
11 | C[C@H](N)C(=O)O [ALANINE] | > 30 µM | > 30 µM | – | – | –
12 | C[C@H]1O[C@@H](O[C@H]2[C@@H](O)C[C@H](O[C@H]3[C@@H](O)C[C@H](O[C@H]4CC[C@@]5(C)[C@H](CC[C@@H]6[C@@H]5CC[C@]5(C)[C@@H](C7=CC(=O)OC7)CC[C@]65O)C4)O[C@@H]3C)O[C@@H]2C)C[C@H](O)[C@@H]1O [DIGITOXIN] | > 30 µM | – | – | – | –
13 | CCC(=O)O[C@]1(C(=O)COC(C)=O)CC[C@H]2[C@@H]3CCC4=CC(=O)CC[C@]4(C)[C@H]3[C@@H](O)C[C@@]21C [HYDROCORTISONE ACEPONATE] | 0.314 µM | > 30 µM | – | – | –
14 | C[C@@H](O)[C@H]1C(=O)N2C(C(=O)O)=C([C@H]3CCCO3)S[C@H]12 [FAROPENEM] | > 30 µM | > 30 µM | – | – | –
15 | CC[N+](C)(CC)CCOC(=O)C1c2ccccc2Oc2ccccc21 [METHANTHELINE] | > 30 µM | > 30 µM | – | – | –
16 | c1ccc2[nH]c(-c3cscn3)nc2c1 [THIABENDAZOLE] | > 30 µM | – | – | – | –
17 | CCC[C@@H]1C[C@@H](C(=O)N[C@@H]([C@H]2O[C@H](SC)[C@H](OP(=O)(O)O)[C@@H](O)[C@H]2O)[C@H](C)Cl)N(C)C1 [CLINDAMYCIN PHOSPHATE] | > 30 µM | > 30 µM | – | – | –
